Results reported in patent publication US20150141381A1, “TETRACYCLINE COMPOUNDS HAVING TARGET THERAPEUTIC ACTIVITIES” (Paratek Pharmaceuticals, Inc., priority 2001, published 2015).
Read-outs that look alike come from different tables or passages of the source.

Legend:
[1] = system: E. coli mL308 225; assay: In Vitro Anti-Bacterial Activity Assay (MIC), gram negative; format: cell-based; details: Escherichia coli, ML308225, 18 h
[2] = system: S. aureus RN450; assay: In Vitro Anti-Bacterial Activity Assay (MIC), gram positive; format: cell-based; details: Staphylococcus aureus, RN450, 18 h
[3] = MIC class, Table 3, read-out: Antibiotic Activity Gram −
[4] = MIC class, Table 3, read-out: Antibiotic Activity Gram +
[5] = gram negative bacteria, read-out: Antibiotic Activity Gram − (MIC)
[6] = gram positive bacteria, read-out: Antibiotic Activity Gram + (MIC)
[7] = MIC class, Table 3 (Continued), read-out: Gram− activity
[8] = MIC class, Table 3 (Continued), read-out: Gram+ activity

Row | Structure (SMILES) | MIC [1, 3] | MIC [2, 4] | MIC [1, 5] | MIC [2, 6] | further results
1 | CN(C)C1C(O)=C(C(N)=O)C(=O)[C@@]2(O)C(O)=C3C(=O)c4c(O)ccc(NS(C)(=O)=O)c4C[C@H]3C[C@@H]12 (stereo partly drawn) [JS] | > 4 µg/mL | < 4 µg/mL | – | – | –
2 | CN(C)CCCc1ccc(O)c2c1C[C@H]1C[C@H]3[C@H](N(C)C)C(O)=C(C(N)=O)C(=O)[C@@]3(O)C(O)=C1C2=O [BQ] | > 4 µg/mL | < 4 µg/mL | – | – | –
3 | CN1CCC(NCc2cc(N(C)C)c3c(c2O)C(=O)C2=C(O)[C@]4(O)C(=O)C(C(N)=O)=C(O)[C@@H](N(C)C)[C@@H]4C[C@@H]2C3)CC1 | – | – | > 4 µg/mL | > 4 µg/mL | –
4 | CN(C)c1ccc2c(c1O)C(=O)C1=C(O)[C@]3(O)C(=O)C(C(N)=O)=C(O)[C@@H](N(C)C)[C@@H]3C[C@@H]1C2 [JX] | > 4 µg/mL | < 4 µg/mL | – | – | –
5 | COC(=O)C(CC(C)C)NCc1ccc(OC)c(-c2ccc(O)c3c2C[C@H]2C[C@H]4[C@H](N(C)C)C(O)=C(C(N)=O)C(=O)[C@@]4(O)C(O)=C2C3=O)c1 (stereo partly drawn) [FY] | > 4 µg/mL | < 4 µg/mL | – | – | –
6 | CN(C)c1cc2c(c3c1C[C@H]1C[C@H]4[C@H](N(C)C)C(O)=C(C(N)=O)C(=O)[C@@]4(O)C(O)=C1C3=O)OC(=O)N(CC(C)(C)C)C2 | – | – | > 4 µg/mL | > 4 µg/mL | –
7 | CC1c2c(-c3ccc(Cl)cc3)ccc(O)c2C(=O)C2=C(O)[C@]3(O)C(=O)C(C(N)=O)=C(O)[C@@H](N(C)C)[C@@H]3[C@@H](O)[C@@H]21 (stereo partly drawn) | – | – | – | – | MIC [1, 7]: < 4 µg/mL; MIC [2, 8]: < 4 µg/mL
8 | COc1ccc(NC(=O)Nc2cc(N(C)C)c3c(c2O)C(=O)C2=C(O)[C@]4(O)C(=O)C(C(N)=O)=C(O)[C@@H](N(C)C)[C@@H]4C[C@@H]2C3)cc1 [KB] | > 4 µg/mL | < 4 µg/mL | – | – | –
9 | CN(C)c1cc(NC(=O)Nc2cccc3ccccc23)c(O)c2c1C[C@H]1C[C@H]3[C@H](N(C)C)C(O)=C(C(N)=O)C(=O)[C@@]3(O)C(O)=C1C2=O [S] | > 4 µg/mL | < 4 µg/mL | – | – | –
10 | CN1CCN(Cc2ccc(-c3cc(N(C)C)c4c(c3O)C(=O)C3=C(O)[C@]5(O)C(=O)C(C(N)=O)=C(O)[C@@H](N(C)C)[C@@H]5C[C@@H]3C4)o2)CC1 | – | – | > 4 µg/mL | < 4 µg/mL | –
11 | COc1ccc(-c2ccc(O)c3c2C[C@H]2C[C@H]4[C@H](N(C)C)C(O)=C(C(N)=O)C(=O)[C@@]4(O)C(O)=C2C3=O)cc1CN(C)C [IT] | < 4 µg/mL | < 4 µg/mL | – | – | –
12 | CC(C)N1CCC(Nc2ccc3c(c2O)C(=O)C2=C(O)[C@]4(O)C(=O)C(C(N)=O)=C(O)[C@@H](N(C)C)[C@@H]4C[C@@H]2C3)CC1 | – | – | > 4 µg/mL | < 4 µg/mL | –
13 | CN1CCN(Cc2ccc(-c3ccc(O)c4c3C[C@H]3C[C@H]5[C@@H](N(C)C)C(O)=C(C(N)=O)C(=O)[C@@]5(O)C(O)=C3C4=O)o2)CC1 [LN] | < 4 µg/mL | < 4 µg/mL | – | – | –
14 | CN(C)c1cc(C#CCc2ccccc2)c(O)c2c1C[C@H]1C[C@H]3[C@H](N(C)C)C(O)=C(C(N)=O)C(=O)[C@@]3(O)C(O)=C1C2=O [DQ] | > 4 µg/mL | < 4 µg/mL | – | – | –
15 | CN(C)[C@@H]1C(O)=C(C(N)=O)C(=O)[C@@]2(O)C(O)=C3C(=O)c4c(O)c(CN5CCOCC5)cc(-c5ccoc5)c4C[C@H]3C[C@@H]12 [QA] | < 4 µg/mL | < 4 µg/mL | – | – | –
16 | CN(C)[C@@H]1C(O)=C(C(N)=O)C(=O)[C@@]2(O)C(O)=C3C(=O)c4c(cccc4OCCCO)C[C@H]3C[C@@H]12 | – | – | > 4 µg/mL | > 4 µg/mL | –
17 | CN(C)[C@@H]1C(O)=C(C(N)=O)C(=O)[C@@]2(O)C(O)=C3C(=O)c4c(O)ccc(-c5cncc(CO)c5)c4C[C@H]3C[C@@H]12 | – | – | > 4 µg/mL | < 4 µg/mL | –
18 | CC(C)COC(=O)NCc1ccc(-c2ccc(O)c3c2C[C@H]2C[C@H]4[C@H](N(C)C)C(O)=C(C(N)=O)C(=O)[C@@]4(O)C(O)=C2C3=O)cc1 | – | – | > 4 µg/mL | < 4 µg/mL | –
19 | CCc1cc(CN)c(O)c2c1C[C@H]1C[C@H]3[C@H](N(C)C)C(O)=C(C(N)=O)C(=O)[C@@]3(O)C(O)=C1C2=O [CT] | < 4 µg/mL | > 4 µg/mL | – | – | –
20 | C[C@H]1c2ccc(-c3ccc(C=O)c4ccccc34)c(O)c2C(=O)C2=C(O)[C@]3(O)C(=O)C(C(N)=O)=C(O)[C@@H](N(C)C)[C@@H]3[C@@H](O)[C@@H]21 | – | – | < 4 µg/mL | < 4 µg/mL | –
21 | CCc1cc(N(C)C)c2c(c1O)C(=O)C1=C(O)[C@]3(O)C(=O)C(C(N)=O)=C(O)C(N(C)C)[C@@H]3C[C@@H]1C2 (stereo partly drawn) [IA] | > 4 µg/mL | < 4 µg/mL | – | – | –
22 | CCN(CC)Cc1ccc(OC)c(-c2ccc(O)c3c2C[C@H]2C[C@H]4[C@@H](N(C)C)C(O)=C(C(N)=O)C(=O)[C@@]4(O)C(O)=C2C3=O)c1 [J] | < 4 µg/mL | < 4 µg/mL | – | – | –
23 | CCC(=O)c1ccc(O)c2c1C[C@H]1C[C@H]3[C@H](N(C)C)C(O)=C(C(N)=O)C(=O)[C@@]3(O)C(O)=C1C2=O [EA] | < 4 µg/mL | < 4 µg/mL | – | – | –

Row | Structure (SMILES) | MIC [1, 3] | MIC [2, 4] | MIC [1, 5] | MIC [2, 6] | further results
24 | CC(O)C#Cc1ccc(O)c2c1C[C@H]1C[C@H]3[C@H](N(C)C)C(O)=C(C(N)=O)C(=O)[C@@]3(O)C(O)=C1C2=O (stereo partly drawn) [BD] | < 4 µg/mL | < 4 µg/mL | – | – | –
25 | C[C@H]1c2ccc(NC3CC(C)(C)NC(C)(C)C3)c(O)c2C(=O)C2=C(O)[C@]3(O)C(=O)C(C(N)=O)=C(O)[C@@H](N(C)C)[C@@H]3[C@@H](O)[C@@H]21 | – | – | > 4 µg/mL | < 4 µg/mL | –
26 | CN(C)c1cc(NC(=O)Oc2ccc(Cl)cc2)c(O)c2c1C[C@H]1C[C@H]3[C@H](N(C)C)C(O)=C(C(N)=O)C(=O)[C@@]3(O)C(O)=C1C2=O [DP] | – | – | – | – | MIC ([1]; read-out: Antibiotic Activity Gram −): > 4 µg/mL; MIC ([2]; read-out: Antibiotic Activity Gram +): > 4 µg/mL
27 | CN(C)c1cc(CN(Cc2ccccc2)CC(F)(F)F)c(O)c2c1C[C@H]1C[C@H]3[C@H](N(C)C)C(O)=C(C(N)=O)C(=O)[C@@]3(O)C(O)=C1C2=O | – | – | > 4 µg/mL | < 4 µg/mL | –
28 | CCOc1ccc(/C=C2\c3cccc(O)c3C(=O)C3=C(O)[C@]4(O)C(=O)C(C(N)=O)=C(O)[C@@H](N(C)C)[C@@H]4[C@@H](O)[C@@H]32)cc1 | – | – | – | – | MIC [1, 7]: > 4 µg/mL; MIC [2, 8]: < 4 µg/mL
29 | Cc1ccc(/C=C/c2ccc(O)c3c2C[C@H]2C[C@H]4[C@H](N(C)C)C(O)=C(C(N)=O)C(=O)[C@@]4(O)C(O)=C2C3=O)cc1 [drawing 3339] | – | – | – | – | MIC [1, 7]: < 4 µg/mL; MIC [2, 8]: < 4 µg/mL
30 | CN(C)[C@@H]1C(O)=C(C(N)=O)C(=O)[C@@]2(O)C(O)=C3C(=O)c4c(O)ccc(-c5ccc(CNCc6cccc(Cl)c6)cc5)c4C[C@H]3C[C@@H]12 | – | – | < 4 µg/mL | < 4 µg/mL | –
31 | CC(C)c1ccc(CNc2cc(N(C)C)c3c(c2O)C(=O)C2=C(O)[C@]4(O)C(=O)C(C(N)=O)=C(O)[C@@H](N(C)C)[C@@H]4C[C@@H]2C3)cc1 [NN] | > 4 µg/mL | < 4 µg/mL | – | – | –
32 | CN(CCCC(F)(F)F)Cc1cc(N(C)C)c2c(c1O)C(=O)C1=C(O)[C@]3(O)C(=O)C(C(N)=O)=C(O)[C@@H](N(C)C)[C@@H]3C[C@@H]1C2 | – | – | < 4 µg/mL | < 4 µg/mL | –
33 | CN(C)c1cc(NC(=O)Nc2ccc(F)c([N+](=O)[O-])c2)c(O)c2c1C[C@H]1C[C@H]3[C@H](N(C)C)C(O)=C(C(N)=O)C(=O)[C@@]3(O)C(O)=C1C2=O [DB] | > 4 µg/mL | < 4 µg/mL | – | – | –
34 | COC(=O)CCc1ccc(O)c2c1C[C@H]1C[C@H]3C(N(C)C)C(O)=C(C(N)=O)C(=O)[C@@]3(O)C(O)=C1C2=O (stereo partly drawn) [FC] | > 4 µg/mL | < 4 µg/mL | – | – | –
35 | CN(C)c1cc(C#Cc2ccccc2)c(O)c2c1C[C@H]1C[C@H]3[C@H](N(C)C)C(O)=C(C(N)=O)C(=O)[C@@]3(O)C(O)=C1C2=O | – | – | – | – | MIC [1, 7]: < 4 µg/mL; MIC [2, 8]: < 4 µg/mL
36 | CN(C)c1cc(C#CCNS(C)(=O)=O)c(O)c2c1C[C@H]1C[C@H]3[C@H](N(C)C)C(O)=C(C(N)=O)C(=O)[C@@]3(O)C(O)=C1C2=O | – | – | > 4 µg/mL | > 4 µg/mL | –
37 | CN(C)c1cc(-c2ccc(CN3CCN(c4ccccc4F)CC3)o2)c(O)c2c1C[C@H]1C[C@H]3[C@H](N(C)C)C(O)=C(C(N)=O)C(=O)[C@@]3(O)C(O)=C1C2=O | – | – | > 4 µg/mL | > 4 µg/mL | –
38 | CN(C)c1cc(NC(=O)Nc2ccc(Cl)cc2[N+](=O)O)c(O)c2c1C[C@H]1C[C@H]3[C@H](N(C)C)C(O)=C(C(N)=O)C(=O)[C@@]3(O)C(O)=C1C2=O [DC] | > 4 µg/mL | < 4 µg/mL | – | – | –
39 | Cc1ccnc(-c2ccc(O)c3c2C[C@H]2C[C@H]4[C@H](N(C)C)C(O)=C(C(N)=O)C(=O)[C@@]4(O)C(O)=C2C3=O)c1 | – | – | < 4 µg/mL | < 4 µg/mL | –
40 | CC(C)c1cccc(-c2ccc(O)c3c2C[C@H]2C[C@H]4[C@H](N(C)C)C(O)=C(C(N)=O)C(=O)[C@@]4(O)C(O)=C2C3=O)c1 | – | – | < 4 µg/mL | < 4 µg/mL | –
41 | COC(=O)CCC(=O)Nc1ccc(-c2ccc(O)c3c2C[C@H]2C[C@H]4[C@H](N(C)C)C(O)=C(C(N)=O)C(=O)[C@@]4(O)C(O)=C2C3=O)cc1 | – | – | > 4 µg/mL | < 4 µg/mL | –
42 | CN(C)c1cc(CNCC2CC2)c(O)c2c1C[C@H]1C[C@H]3[C@H](N(C)C)C(O)=C(C(N)=O)C(=O)[C@@]3(O)C(O)=C1C2=O | – | – | > 4 µg/mL | < 4 µg/mL | –
43 | CCc1ccnc(-c2ccc(O)c3c2C[C@H]2C[C@H]4[C@H](N(C)C)C(O)=C(C(N)=O)C(=O)[C@@]4(O)C(O)=C2C3=O)c1 [NZ] | < 4 µg/mL | < 4 µg/mL | – | – | –
44 | CC#Cc1cc(N(C)C)c2c(c1O)C(=O)C1=C(O)[C@]3(O)C(=O)C(C(N)=O)=C(O)[C@@H](N(C)C)[C@@H]3C[C@@H]1C2 | – | – | – | – | MIC [1, 7]: > 4 µg/mL; MIC [2, 8]: > 4 µg/mL
45 | CN(C)[C@@H]1C(O)=C(C(N)=O)C(=O)[C@@]2(O)C(O)=C3C(=O)c4c(ccc(N5CCCCC5)c4O)C[C@H]3C[C@@H]12 | – | – | > 4 µg/mL | > 4 µg/mL | –
